Test results taken from ChEMBL document CHEMBL3885861, “Open TG-GATES”.

Species: Rattus norvegicus
Experiment: Open TG-GATES - Regimen: Single
Format: toxicity, organism-based, Sprague-Dawley
Design: regimen Single, gender Male, age 6 weeks
Settings: in vivo, po, 2000 mg/kg, route gavage, dose level High; for APTT / Bas / Eos / Fbg / Hb / Ht / Lym / MCH / MCHC / MCV / Mono / Neu / PT / Plat / RBC / Ret / WBC: tissue Blood; for KIDNEY_L / KIDNEY_R / KIDNEY_TOTAL: tissue Kidney; for LIVER: tissue Liver; for A/G / ALP / ALT / AST / BUN / CRE / Ca / Cl / DBIL / GLC / IP / K / LDH / Na / PL / RALB / TBIL / TC / TG / TP / gamma-GTP: tissue Plasma

Work on `CC(=O)[C@@]1(O)CC[C@H]2[C@@H]3C=C(Cl)C4=CC(=O)CC[C@]4(C)[C@H]3CC[C@@]21C` [CHLORMADINONE] yielded a TERMINAL_BW (3 h) of 222.1 g, an APTT (3 h) of 22.6 s and a Bas (3 h) of 0%. The Eos (3 h) was 1%, the Fbg (3 h) was 306 mg/dL and the Hb (3 h) was 12.8 g/dL. The Ht (3 h) was 39.5%, the Lym (3 h) was 74.8% and the MCH (3 h) was 20 pg. It also gave an MCHC (3 h) of 32.4%, an MCV (3 h) of 61.8 fL and a Mono (3 h) of 2%. The Neu (3 h) was 21.6%, the PT (3 h) was 15.2 s and the Plat (3 h) was 107.8 x10_4/uL. It also gave an RBC (3 h) of 639.8 x10_4/ul, a Ret (3 h) of 7.8% and a WBC (3 h) of 55.6 x10_2/uL. For the same compound, the KIDNEY_L (3 h) was 0.9 g, the KIDNEY_R (3 h) was 1 g and the KIDNEY_TOTAL (3 h) was 1.9 g. The LIVER (3 h) was 10.1 g, the A/G (3 h) was 1.2 and the ALP (3 h) was 1401.2 IU/L. For the same compound, the ALT (3 h) was 45.6 IU/L, the AST (3 h) was 81 IU/L and the BUN (3 h) was 13.8 mg/dL. For the same compound, the CRE (3 h) was 0.2 mg/dL, the Ca (3 h) was 10.9 mg/dL and the Cl (3 h) was 105.2 meq/L. The DBIL (3 h) was 0.004 mg/dL, the GLC (3 h) was 172.2 mg/dL and the IP (3 h) was 8.9 mg/dL. For the same compound, the K (3 h) was 4.2 meq/L, the LDH (3 h) was 143.6 IU/L and the Na (3 h) was 141.2 meq/L. It also gave a PL (3 h) of 138 mg/dL, an RALB (3 h) of 3 g/dL and a TBIL (3 h) of 0.032 mg/dL. It also gave a TC (3 h) of 73.6 mg/dL, a TG (3 h) of 50.8 mg/dL and a TP (3 h) of 5.5 g/dL. The gamma-GTP (3 h) was 1.4 IU/L, the TERMINAL_BW (6 h) was 216.3 g and the APTT (6 h) was 23.1 s. For the same compound, the Bas (6 h) was 0%, the Eos (6 h) was 0.6% and the Fbg (6 h) was 313.4 mg/dL. It also gave a Hb (6 h) of 13.5 g/dL, a Ht (6 h) of 41.5% and a Lym (6 h) of 74%. The MCH (6 h) was 20.8 pg, the MCHC (6 h) was 32.6% and the MCV (6 h) was 63.7 fL. It also gave a Mono (6 h) of 1.6%, a Neu (6 h) of 23.4% and a PT (6 h) of 15.1 s. The Plat (6 h) was 124.8 x10_4/uL, the RBC (6 h) was 651.8 x10_4/ul and the Ret (6 h) was 7.9%. The WBC (6 h) was 64 x10_2/uL, the KIDNEY_L (6 h) was 1 g and the KIDNEY_R (6 h) was 1 g. The KIDNEY_TOTAL (6 h) was 2 g, the LIVER (6 h) was 10.3 g and the A/G (6 h) was 1.2. For the same compound, the ALP (6 h) was 1302 IU/L, the ALT (6 h) was 40.4 IU/L and the AST (6 h) was 72.8 IU/L. The BUN (6 h) was 13 mg/dL, the CRE (6 h) was 0.1 mg/dL and the Ca (6 h) was 10.8 mg/dL. The Cl (6 h) was 106.2 meq/L, the DBIL (6 h) was 0.004 mg/dL and the GLC (6 h) was 177.4 mg/dL. It also gave an IP (6 h) of 9.6 mg/dL, a K (6 h) of 4.8 meq/L and an LDH (6 h) of 157 IU/L. The Na (6 h) was 140 meq/L, the PL (6 h) was 138 mg/dL and the RALB (6 h) was 3.2 g/dL. The TBIL (6 h) was 0.034 mg/dL, the TC (6 h) was 77.2 mg/dL and the TG (6 h) was 39.8 mg/dL. For the same compound, the TP (6 h) was 5.7 g/dL, the gamma-GTP (6 h) was 1.6 IU/L and the TERMINAL_BW (9 h) was 215.8 g. For the same compound, the APTT (9 h) was 24.7 s, the Bas (9 h) was 0% and the Eos (9 h) was 0%. The Fbg (9 h) was 319.6 mg/dL, the Hb (9 h) was 13 g/dL and the Ht (9 h) was 40.7%. For the same compound, the Lym (9 h) was 71.2%, the MCH (9 h) was 20.2 pg and the MCHC (9 h) was 31.9%. The MCV (9 h) was 63.4 fL, the Mono (9 h) was 1% and the Neu (9 h) was 27.2%. For the same compound, the PT (9 h) was 15.7 s, the Plat (9 h) was 119.5 x10_4/uL and the RBC (9 h) was 642 x10_4/ul. The Ret (9 h) was 7.9%, the WBC (9 h) was 51.3 x10_2/uL and the KIDNEY_L (9 h) was 0.9 g. For the same compound, the KIDNEY_R (9 h) was 1 g, the KIDNEY_TOTAL (9 h) was 1.9 g and the LIVER (9 h) was 9.8 g. The A/G (9 h) was 1.3, the ALP (9 h) was 1584 IU/L and the ALT (9 h) was 39.4 IU/L. The AST (9 h) was 78 IU/L, the BUN (9 h) was 12.8 mg/dL and the CRE (9 h) was 0.1 mg/dL. The Ca (9 h) was 10.6 mg/dL, the Cl (9 h) was 106.6 meq/L and the DBIL (9 h) was 0 mg/dL. It also gave a GLC (9 h) of 178 mg/dL, an IP (9 h) of 9.4 mg/dL and a K (9 h) of 4.5 meq/L. It also gave an LDH (9 h) of 142 IU/L, a Na (9 h) of 141 meq/L and a PL (9 h) of 142.4 mg/dL. For the same compound, the RALB (9 h) was 3.2 g/dL, the TBIL (9 h) was 0.028 mg/dL and the TC (9 h) was 73 mg/dL. It also gave a TG (9 h) of 67.2 mg/dL, a TP (9 h) of 5.7 g/dL and a gamma-GTP (9 h) of 1.4 IU/L. For the same compound, the TERMINAL_BW (24 h) was 229.8 g, the APTT (24 h) was 25.3 s and the Bas (24 h) was 0%. It also gave an Eos (24 h) of 1%, a Fbg (24 h) of 341.6 mg/dL and a Hb (24 h) of 14 g/dL. The Ht (24 h) was 42.6%, the Lym (24 h) was 77.6% and the MCH (24 h) was 20.4 pg. It also gave an MCHC (24 h) of 32.8%, an MCV (24 h) of 62 fL and a Mono (24 h) of 2.6%. For the same compound, the Neu (24 h) was 17.8%, the PT (24 h) was 15.3 s and the Plat (24 h) was 106.3 x10_4/uL. For the same compound, the RBC (24 h) was 687 x10_4/ul, the Ret (24 h) was 7.3% and the WBC (24 h) was 130.3 x10_2/uL. The KIDNEY_L (24 h) was 1 g, the KIDNEY_R (24 h) was 1 g and the KIDNEY_TOTAL (24 h) was 2 g. It also gave an LIVER (24 h) of 11.8 g, an A/G (24 h) of 1.2 and an ALP (24 h) of 1835.4 IU/L. For the same compound, the ALT (24 h) was 51.2 IU/L, the AST (24 h) was 75 IU/L and the BUN (24 h) was 15.8 mg/dL. It also gave a CRE (24 h) of 0.2 mg/dL, a Ca (24 h) of 11.3 mg/dL and a Cl (24 h) of 105.4 meq/L. For the same compound, the DBIL (24 h) was 0 mg/dL, the GLC (24 h) was 192.4 mg/dL and the IP (24 h) was 7.8 mg/dL. The K (24 h) was 4.7 meq/L, the LDH (24 h) was 201 IU/L and the Na (24 h) was 140.6 meq/L. For the same compound, the PL (24 h) was 185.2 mg/dL, the RALB (24 h) was 3.2 g/dL and the TBIL (24 h) was 0.004 mg/dL. It also gave a TC (24 h) of 82 mg/dL, a TG (24 h) of 222 mg/dL and a TP (24 h) of 5.8 g/dL. The gamma-GTP (24 h) was 1.4 IU/L.
